EP1914236A1 (Ortho-McNeil Pharmaceutical, Inc., priority 2002, dated 2003)
pKi: −log10 of the molar value. Where two headings read alike, the source gives them in different places.

What was measured:
[1] = Graded Abdominal Irritant Test (GrAIT); type: in vivo; details: for % Inhibition: 30 minutes before kaolin (100 mg/kg intraperitoneally), responses counted for 15 minutes, dose not given; for ED50: log dose regression analysis
Description: The Graded Abdominal Irritant Test (GrAIT) is a modification of the methods described by Koster et al. (Koster R., Anderson M and DeBeer E. J. Fed. Proc. 1959, 18, 412). Prior to the test (30 minutes for oral or subcutaneous administration), each animal was administered a known analgesic, a test compound, or vehicle (0.05N HCl) by one of two routes (oral or subcutaneous).
Kaolin (100 mg/kg) was injected intraperitoneally (using a standard 23G needle) at a volume of 10mL/kg of body weight. Following the administration of the chemical agent, the animals were placed in glass bell jars (approximately 15cm in diameter with wood chips on the bottom). […] A contraction of the abdominal musculature and an elongation of the body, which extends through to the hindlimbs, characterize this response. The responses were counted during the 15-minute time period after the injection of the kaolin. A mechanical counter or a personal computer was used to collect the number of counts per animal, and animals were observed no more than 5 at a time.
The mean number of counts (±SEM) for a group of animals receiving a known analgesic or test compound was compared to the mean for the group of animals which received only vehicle pretreatment (Control group). For each dose, % inhibition of the response was calculated. For each test compound, the EDso value was calculated using a log dose regression analysis program (PharmTools software).

[2] = target: T1, CHO-hB2 cell membranes (Homo sapiens, UniProt P30411); assay: [35S]GTPγS Binding Assay in CHO-hB2 Cell Membranes; type: biochemical
T1 construct: purchased Receptor Biology, Inc. (Baltimore, MD); host or cells: CHO-hB2 cells (membranes)
T1 sequence (P30411 1-391): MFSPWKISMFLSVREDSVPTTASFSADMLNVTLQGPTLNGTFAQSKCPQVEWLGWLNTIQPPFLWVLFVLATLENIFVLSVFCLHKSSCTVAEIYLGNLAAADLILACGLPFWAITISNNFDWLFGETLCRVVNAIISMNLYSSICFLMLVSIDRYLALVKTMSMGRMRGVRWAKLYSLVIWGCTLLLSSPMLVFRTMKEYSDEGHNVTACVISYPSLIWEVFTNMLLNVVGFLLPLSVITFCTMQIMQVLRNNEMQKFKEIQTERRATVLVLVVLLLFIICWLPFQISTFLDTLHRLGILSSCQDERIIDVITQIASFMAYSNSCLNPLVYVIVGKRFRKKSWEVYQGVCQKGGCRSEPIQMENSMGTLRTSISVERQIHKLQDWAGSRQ
Description: CHO-hB2 cell membranes were purchased from Receptor Biology, Inc. (Baltimore,MD). 10 mg/mL of membrane protein was suspended in 10 mM TRIS-HC pH 7.2, 2 mM EDTA, 10% sucrose.
Membranes were added into 15 mL ice cold binding assay buffer. The assay buffer contained 50 mM HEPES, pH 7.6, 5 mM MgCl2, 100 mM NaCl, 1 mM DTT and 1 mM EDTA. The membrane suspension was homogenized twice with a Polytron and centrifuged at 3000 rpm for 10 min. The supernatant was then centrifuged at 18,000 rpm for 20 min. The pellet was saved in a tube and resuspended.
The pellet membranes (40 µg/mL) were preincubated with SPA (scintillation proximity assay) beads (20 mg/mL) at 25C° for 45 min in the assay buffer. The SPA beads (5 mg/mL) coupled with membranes (10 µg/mL) were then incubated with 0.5 nM [^35S]GTPγS in the same HEPES buffer containing 50 µM GDP in total volume of 200 µL. Bradykinin was used to stimulate [^35S]GTPγS binding. Varying concentrations of drugs were incubated with bradykinin to inhibit bradykinin-stimulated [^35S]GTPγS binding. The basal binding was tested in the absence of bradykinin and no specific binding was tested in the present 10 µM unlabeled GTPγS. The radioactivity was quantified on a Packard Top Count, and calculated. % of Basal = (stimulated binding-non specific binding)/(basal binding-non specific binding) × 100. [formula]

[3] = target: T2, human B2 bradykinin receptors (Homo sapiens, UniProt P30411); assay: Bradykinin B2 (BK2) Receptor Binding Assay
T2 construct: purchased Receptor Biology, Inc. (Baltimore, MD); host or cells: CHO-K1 cells transfected with the human B2 receptor (membranes)
T2 sequence (P30411 1-391): T1 sequence (P30411 1-391)
Procedure, shortened: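 Membranes came from CHO-K1 cells expressing human B2 receptors; bound radioligand was collected by filtration and washed with cold 10 mM HEPES, pH 7.5. Single concentrations gave % inhibition of specific binding, and concentration ranges gave Ki values.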

[4] = number in parentheses, bradykinin-stimulated [35S]GTPγS binding, test concentration not given
[5] = word part of the cell, effect on bradykinin-stimulated [35S]GTPγS binding
[6] = membranes of CHO-K1 cells transfected with human B2 bradykinin receptors, ~0.25 nM [3H]NPC17731, 60 min at 25°C

Cc1ccc2cccc(OCc3c(C)ccc(N(C)C(=O)CCc4ccc(C(=O)c5ccc(Cl)nc5)n4C)c3C)c2n1 [Compound 88]
% Inhibition ([1]; po): -24% | % Inhibition ([1]; sc): 96% | Functional Activity (% Basal) [2, 4]: 41 % Basal | Functional Activity [2, 5]: Antagonist | pKi [3, 6]: 6.90

Cc1ccc2cccc(OCc3c(C)ccc(N(C)C(=O)Cc4ccc(C(=O)c5ccc(C#N)cc5)n4C)c3C)c2n1 [Compound 79, 2-[5-(4-Cyano-benzoyl)-1-methyl-1H-pyrrol-2-yl]-N-[2,4-dimethyl-3-(2-methyl-quinolin-8-yloxymethyl)-phenyl]-N-methyl-acetamide]
% Inhibition ([1]; po): 68 po % | ED50 ([1]; po): 61.3 µmol/kg | Functional Activity (% Basal) [2, 4]: 100 % Basal | Functional Activity [2, 5]: Antagonist | pKi [3, 6]: 7.16

Cc1ccc2cccc(OCc3c(Cl)ccc(N(C)C(=O)CCc4ccc(C(=O)c5ccc(C#N)cc5)n4C)c3Cl)c2n1 [Compound 91]
% Inhibition ([1]; po): 23% | % Inhibition ([1]; sc): 97.4% | Functional Activity [2]: Antagonist (58) | Functional Activity (% Basal) [2]: Antagonist (58) % Basal | pKi [3]: 7.82

CCN(C(=O)Cc1ccc(C(=O)c2ccc(Cl)nc2)n1C)c1ccc(Cl)c(COc2cccc3ccc(C)nc23)c1Cl [Compound 17]
% Inhibition ([1]; po): -1% | % Inhibition ([1]; sc): 47% | Functional Activity (% Basal) [2, 4]: 1 % Basal | Functional Activity [2, 5]: No effect | pKi [3, 6]: 6.47

Cc1ccc2cccc(OCc3c(Cl)ccc(N(C)C(=O)Cc4ccc(C(=O)c5ccc(C#N)cc5)n4C)c3Cl)c2n1 [Compound 76]
% Inhibition ([1]; po): 22% | % Inhibition ([1]; sc): 100% | Functional Activity (% Basal) [2, 4]: 79 % Basal | Functional Activity [2, 5]: Antagonist | pKi [3, 6]: 7.39

Cc1ccc2cccc(OCc3c(C)ccc(N(C)C(=O)Cc4ccc(C(=O)c5ccc(Cl)nc5)n4C)c3C)c2n1 [Compound 77]
% Inhibition ([1]; po): 70 po % | ED50 ([1]; po): 80.9 µmol/kg | Functional Activity (% Basal) [2, 4]: 62 % Basal | Functional Activity [2, 5]: Antagonist | pKi [3, 6]: 6.51

CC(=O)Nc1ccc(C(=O)c2ccc(CC(=O)N(C)c3ccc(Cl)c(COc4cccc5ccc(C)nc45)c3Cl)n2C)cc1 [Compound 74, 2-[5-(4-Acetylamino-benzoyl)-1-methyl-1 H-pyrrol-2-yl]-N-[2,4-dichloro-3-(2-methyl-quinolin-8-yloxymethyl)-phenyl]-N-methyl-acetamide]
% Inhibition ([1]; po): -6% | % Inhibition ([1]; sc): 88% | Functional Activity (% Basal) [2, 4]: 33 % Basal | Functional Activity [2, 5]: Antagonist | pKi [3, 6]: 7.17

Cc1ccc2cccc(OCc3c(C)ccc(N(C)C(=O)Cc4ccc(C(=O)c5ccc(C#N)nc5)n4C)c3C)c2n1 [Compound 78]
% Inhibition ([1]; po): 82 po % | ED50 ([1]; po): 114 µmol/kg | Functional Activity (% Basal) [2, 4]: 83 % Basal | Functional Activity [2, 5]: Antagonist | pKi [3, 6]: 6.54

Cc1ccc2cccc(OCc3c(Cl)ccc(N(C)C(=O)Cc4ccc(C(=O)c5ccc(S(C)(=O)=O)cc5)n4C)c3Cl)c2n1 [Compound 75, N-[2,4-Dichloro-3-(2-methyl-quinolin-8-yloxymethyl)-phenyl]-2-[5-(4-methanesulfonyl-benzoyl)-1-methyl-1 H-pyrrol-2-yl]-N-methyl-acetamide]
% Inhibition ([1]; po): 50% | % Inhibition ([1]; sc): 93.3% | Functional Activity (% Basal) [2, 4]: 73 % Basal | Functional Activity [2, 5]: Antagonist | pKi [3, 6]: 7.33

CCn1c(CC(=O)N(C)c2ccc(Cl)c(COc3cccc4ccc(C)nc34)c2Cl)ccc1C(=O)c1ccc(C#N)cc1 [Compound 8]
% Inhibition ([1]; po): -11% | % Inhibition ([1]; sc): 44% | Functional Activity (% Basal) [2, 4]: 40 % Basal | Functional Activity [2, 5]: Antagonist | pKi [3, 6]: 7.89

CCN(C(=O)Cc1ccc(C(=O)c2ccc(C#N)cc2)n1C)c1ccc(C)c(COc2cccc3ccc(C)nc23)c1C [Compound 16]
% Inhibition ([1]; po): 46% | % Inhibition ([1]; sc): 58% | Functional Activity (% Basal) [2, 4]: 1 % Basal | Functional Activity [2, 5]: No effect | pKi [3, 6]: 6.88

Cc1ccc2cccc(OCc3c(Cl)ccc(N(C)C(=O)Cc4ccc(C(=O)c5ccc(Cl)nc5)n4C)c3Cl)c2n1 [Compound 67, 2-[5-(6-Chloro-pyridine-3-carbonyl)-1-methyl-1H-pyrrol-2-yl]-N-[2,4-dichloro-3-(2-methyl-quinolin-8-yloxymethyl)-phenyl]-N-methyl-acetamide]
% Inhibition ([1]; po): 78% | ED50 ([1]; po): 68.8 µmol/kg | % Inhibition ([1]; sc): 100% | Functional Activity (% Basal) [2, 4]: 55 % Basal | Functional Activity [2, 5]: Antagonist | pKi [3, 6]: 6.71

Cc1ccc2cccc(OCc3c(C)ccc(N(C)C(=O)CCc4ccc(C(=O)c5ccc(C#N)cc5)n4C)c3C)c2n1 [Compound 90]
% Inhibition ([1]; po): 45% | % Inhibition ([1]; sc): 100% | Functional Activity (% Basal) [2, 4]: 50 % Basal | Functional Activity [2, 5]: Antagonist | pKi [3, 6]: 7.34

Cc1ccc2cccc(OCc3c(Cl)ccc(N(C)C(=O)Cc4ccc(C(=O)CN5CCC(c6ccccc6)CC5)n4C)c3Cl)c2n1 [Compound 58, N-[2,4-Dichloro-3-(2-methyl-quinolin-8-yloxymethyl)-phenyl]-N-methyl-2-{1-methyl-5-[2-(4-phenyl-piperidin-1-yl)-acetyl]-1H-pyrrol-2-yl}-acetamide]
Functional Activity (% Basal) [2, 4]: 1 % Basal | Functional Activity [2, 5]: No effect | pKi [3, 6]: 6.53

Cc1ccc2cccc(OCc3c(Cl)cc(Cl)c(N(C)C(=O)Cc4ccc(C(=O)c5ccc(Cl)nc5)n4C)c3Cl)c2n1 [Compound 117, 2-[5-(6-Chloro-pyridine-3-carbonyl)-1-methyl-1H-pyrrol-2-yl]-N-methyl-N-[2,4,6-trichloro-3-(2-methyl-quinolin-8-yloxymethyl)-phenyl]-acetamide]
Functional Activity (% Basal) [2, 4]: 35 % Basal | Functional Activity [2, 5]: Antagonist | pKi [3, 6]: 7.06

Cc1ccc2cccc(OCc3c(Cl)ccc(N(C)C(=O)Cc4ccc(C(=O)c5ccncc5)n4C)c3Cl)c2n1 [Compound 60, N-[2,4-Dichloro-3-(2-methyl-quinolin-8-yloxymethyl)-phenyl]-N-methyl-2-[1-methyl-5-(pyridine-4-carbonyl)-1 H-pyrrol-2-yl]-acetamide]
% Inhibition ([1]; po): 44po % | pKi [3, 6]: 6.40

Cc1ccc2cccc(OCc3c(Cl)ccc(N(C)C(=O)Cc4ccc(C(=O)c5ccccc5[N+](=O)[O-])n4C)c3Cl)c2n1 [Compound 66]
Functional Activity (% Basal) [2, 4]: 35 % Basal | Functional Activity [2, 5]: Antagonist | pKi [3, 6]: 6.77

CSc1ccc(C(=O)c2ccc(CC(=O)N(C)c3ccc(Cl)c(COc4cccc5ccc(C)nc45)c3Cl)n2C)cc1 [Compound 69]
Functional Activity (% Basal) [2, 4]: 41 % Basal | Functional Activity [2, 5]: Antagonist | pKi [3, 6]: 6.96

CCn1c(CC(=O)N(C)c2ccc(C)c(COc3cccc4ccc(C)nc34)c2C)ccc1C(=O)c1ccc(C#N)cc1 [Compound 7]
% Inhibition ([1]; po): 26% | % Inhibition ([1]; sc): 42% | pKi [3, 6]: 7.32

CCCn1c(CC(=O)N(C)c2ccc(Cl)c(COc3cccc4ccc(C)nc34)c2Cl)ccc1C(=O)c1ccc(C#N)cc1 [Compound 9]
Functional Activity (% Basal) [2, 4]: 1 % Basal | Functional Activity [2, 5]: No effect | pKi [3, 6]: 7.57
